Values quoted from earlier work, collected in patent US8686137B2, “Heterocyclic compounds and their uses” (Amgen Inc., priority 2010, dated 2014).

How the values were obtained:
[1] = tested on: mouse model of rheumatoid arthritis; conditions: in vivo
[2] = tested on: model of systemic lupus erythematosis; conditions: in vivo
[3] = target: T1, p110δ (Homo sapiens, UniProt O00329)
T1 sequence (O00329 1-1044): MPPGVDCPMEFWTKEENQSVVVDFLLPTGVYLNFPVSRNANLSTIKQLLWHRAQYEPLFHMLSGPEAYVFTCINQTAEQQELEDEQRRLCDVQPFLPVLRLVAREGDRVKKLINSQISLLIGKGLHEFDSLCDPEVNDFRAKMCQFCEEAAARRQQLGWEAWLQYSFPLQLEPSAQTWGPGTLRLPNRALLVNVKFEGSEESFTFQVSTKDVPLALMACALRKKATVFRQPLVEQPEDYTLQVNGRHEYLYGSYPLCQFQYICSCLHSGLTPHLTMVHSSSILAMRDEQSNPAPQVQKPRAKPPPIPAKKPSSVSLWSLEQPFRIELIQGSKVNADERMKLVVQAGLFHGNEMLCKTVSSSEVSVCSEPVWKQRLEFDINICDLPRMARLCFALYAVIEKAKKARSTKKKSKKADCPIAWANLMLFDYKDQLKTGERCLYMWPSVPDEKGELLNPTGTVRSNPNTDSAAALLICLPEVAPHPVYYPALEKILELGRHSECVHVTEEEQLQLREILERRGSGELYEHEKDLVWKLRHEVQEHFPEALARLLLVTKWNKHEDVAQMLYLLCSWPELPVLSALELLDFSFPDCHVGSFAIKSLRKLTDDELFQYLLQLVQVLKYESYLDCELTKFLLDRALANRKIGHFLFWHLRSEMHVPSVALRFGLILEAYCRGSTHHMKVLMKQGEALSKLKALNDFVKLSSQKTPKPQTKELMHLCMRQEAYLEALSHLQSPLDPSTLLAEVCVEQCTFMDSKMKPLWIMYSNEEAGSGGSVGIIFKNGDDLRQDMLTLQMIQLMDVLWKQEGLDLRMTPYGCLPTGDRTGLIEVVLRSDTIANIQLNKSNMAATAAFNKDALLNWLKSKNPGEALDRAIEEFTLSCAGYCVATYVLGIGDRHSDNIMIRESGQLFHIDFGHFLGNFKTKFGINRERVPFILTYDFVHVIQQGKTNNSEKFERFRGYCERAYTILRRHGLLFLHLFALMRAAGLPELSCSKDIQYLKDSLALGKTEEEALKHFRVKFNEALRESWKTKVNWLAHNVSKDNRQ

[4] = tested on: protein kinases
[5] = tested on: passive cutaneous anaphylaxis (PCA); conditions: absence of functional delta (compound or p110δ D910A mice)
[6] = tested on: ovalbumin-induced airway inflammation

Compound	efficacy in a mouse model of rheumatoid arthritis [1]	onset of disease in a model of systemic lupus erythematosis [2]	inhibits p110δ [3]	activity against any protein kinases tested [4]	passive cutaneous anaphylaxis (PCA) [5]	inflammation and disease in a murine model of asthma [6]
O=C1NC(=O)/C(=C\c2ccc3nccnc3c2)S1 [AS 605240]	efficacious	delay onset of disease				
Cc1ccccc1-n1c(Cn2cnc3c(N)ncnc32)nc2cccc(C)c2c1=O [IC87114]			high nanomolar range (triple digit)	no activity	significantly reduced	significantly ameliorate
